Measured values: patent publication US20030059797A1, “Animal model of and test for Alzheimer's disease” (priority 1999, published 2003)
“And” between values parts separate entries of the source, which are not always exact repeats. Equal entries are not always repeated.

How the values were obtained:
tryptamine binding site = conditions: cited from earlier work; for binding to tryptamine site (in words): human cortical membrane preparation, Mousseau & Butterworth 1994
[1] = system: human neuroblastoma SH SY5Y cell line; test: Cultivation of SH SY5Y cells with TrpRS inhibitors; format: cell-based; conditions: for cell survival after cultivation with inhibitor: 50-100 μg/ml, 5 days, initial density 1×10^3 on 10-cm dishes
Method: The involvement of TrpRS inhibitors in neurofibrillary tangles formation was tested in the human neuroblastoma SH SY5Y cell line expressing tau. Tanaka et al., FEBS Lett. 426: 248-254 (1998). This cloned line comprises two morphologically distinct cell types: predominantly neuroblastic (bearing short neurites) and epithelial-like (lacking neurites). Biedler et al., Cancer Res. 33: 2643-2652 (1973). SH SY5Y cells were grown in 25 cm^2 flasks (TPP, Switzerland) in 5% CO2 at 37° C. in RPMI 1640 medium supplemented with 10% fetal calf serum, 100 u/ml penicillin, 100 μg/ml streptomycin, 0.25 μg/ml amphoterycin and 2 mM glutamine. The neuron/axon lines were isolated after seeding microscopically verified single […] cells.
Continuous treatment with lower concentrations of the inhibitors led to accumulation of large flattened, tightly substrate adherent epithelial-like cells lacking neurites, while the majority of neuroblasts died.
TrpRS was mainly localized in axons and to a less extent in the neuronal body and dendrites (wrs, FIG. 1e). […] In some sublines, however no neuroblasts were observed during 12 months cultivation without inhibitors (low panel, FIG. 1f).

neuronal cell lines = conditions: Tanaka et al. 1998; cited from earlier work
mice [2] = test: Stability (balance) on narrow 1-cm stick; format: in vivo
Method: FIG. 7 is a set of tables and graphs showing measurements of the treated mice's behavior. The control and tryptamine-treated model mice were put on a narrow 1-cm diameter metallic stick. The time that mice balanced on the stick was measured in seconds. 66% of control versus 10% of treated mice kept on the stick for more than 6 seconds in the first experiment and 66% of control versus 20% of treated were for more than 13 seconds in the second experiment. Thus, the model mice were 6.6 times less balanced or coordinated than control.
FIG. 7 is a set of tables and graphs showing measurements of the treated mice's stability The control and tryptamine-treated model mice were put on a narrow 1 cm diameter metallic stick. The time of their presence on the stick was measured in seconds. […] Thus, the model mice are 6.6 times less balanced than control.

mice [3] = test: Observation of health and behavior of tryptamine-treated mice; format: in vivo
Method: (§1) An Alzheimer's disease mouse model was obtained by using intravenous injections of male mice at 8 weeks or age- and sex-matched mice with 1-500 micrograms of tryptamine every second day for at least 2.5 weeks. In one embodiment, mice are injected with 50 micrograms of tryptamine for 4 months. However, the duration of treatment, intervals between injections and concentrations of tryptamine can be successfully varied. Control mice are injected with phosphate-buffered saline.
The tryptamine-treated mice appear to be healthy in comparison to the control mice. The treated mice are clean and fat.

SH SY5Y cells = test: Tryptamine treatment of epithelial-enriched and neuron-axon SH SY5Y cells, staining and electron microscopy; format: cell-based, human; conditions: 20-100 μg/ml tryptamine for 6-60 days, electron microscopy
Method: To examine control epithelial cells, which were not pretreated with inhibitors, neuroblastic and epithelial-enriched cells were separated from one another by exploiting a marked difference in adhesive properties. Biedler et al., Cancer Res. 33: 2643-2652 (1973). The weakly adherent neuroblasts were washed out with trypsin. The selected epithelial-enriched and tryptamine-differentiated neuron-axon cells were treated with 20-100 μg/ml tryptamine for 6-60 days and then stained. […] (Mouse anti-human PHF-tau, clone AT8 against epitope containing phosphorylated Ser202 was obtained from Innogenetics (Ghent, Belgium).)
To test whether TrpRS and tau co-localize in neurofibrillary tangles, fluorescent double labeling with AT8 and anti-TrpRS was performed. In acute-treated cells, the proteins were co-localized both in I-NFT-like encircled nuclei (FIG. 2e, f, i, and j) and E-NFT-like manifestations (FIG. 2g). In the perikarya of the control pretreated or untreated epithelial cells, few if any such formations were labeled (FIG. 2h and FIG. 2k). The staining is specific. The staining was absent in the control specimens probed with secondary antibodies (FIG. 2l).
To test whether tryptamine-induced manifestations are associated with neurofilaments, the cells were prepared either as a suspension (FIG. 2m) or as a monolayer and then analyzed by electron microscopy. […]

TrpRS = test: Western blot of TrpRS in detergent-insoluble fraction of treated cells; format: cell-based, human; conditions: 6C10/C9 blot
Method: The involvement of tau and TrpRS in tryptamine-induced phenotypes was tested in extracts of control and treated cells. Triton extraction was performed as follows: Cells were lysed in 0.1 M Hepes buffer, pH 6.9, 0.5% Triton X100, 1 mM MgCl2, 0.1 mM EDTA, 2 mM EGTA, 1 mM DTT, 1 mM PMSF, 0.4 mg/ml aprotinin, 0.1 mg/ml antipain, leupeptin, pepstatin, and hemastatin, 0.1 μM okadaic acid, 10 mM sodium ortovanadate, and 50 mM sodium fluoride for 20 min in situ at room temperature. The detergent-insoluble fraction was collected with scraper and washed in the same buffer excluding inhibitors of phosphatases. The detergent-insoluble fraction was then solubilized in SDS-sample buffer at 100° C. for 5 min, and spun. […]
In the Western blot, both human recombinant ˜54 kDa and bovine ˜60 and ˜40-42 kDa (well-characterized proteolytic fragments) TrpRS reacted with 6C10/C9 and polyclonal antibodies (FIG. 3b), while poorly with 9D7. The main form and an additional high molecular weight TrpRS were induced in detergent-insoluble cytoskeleton by tryptamine treatment (right panel, FIG. 3c), whereas no difference was detected between acute-treated and pretreated cells (left and middle panels, FIG. 3c) when total extracts were analyzed. In the cytoskeleton of both treated and control cells, TrpRS was detected at a lower molecular weight than the cytoplasmic TrpRS (FIG. 3c). […]

mice [4] = test: Brain histology of tryptamine-treated mice (Congo Red, Gallyas silver staining); format: in vivo; conditions: intravenous, every second day, at least 2.5 weeks of treatment
Method: as §1
Immunochemical assays with control and tryptamine-treated mice. Following tryptamine treatment, the brains of the treated model mice and the control untreated mice were routinely fixed; sectioned, stained and analyzed microscopically, using commonly used well-established methods. The mouse brains were examined for Alzheimer's-like manifestations.
These manifestations were not found in the control mice.
FIG. 5 is a set of micrographs showing Congo Red staining and birefringence of sagittal sections from brains of tryptamine-treated mice. […] FIG. 6 is a set of micrographs showing silver staining of Alzheimer's neurofibrillary changes in the brain sections of tryptamine-treated mice.

mice [5] = test: Running on a narrow stick, tryptamine-treated mice; format: in vivo; conditions: individual mouse
Method: as §1
Behavioral tests with control and tryptamine-treated mice. Behavioral assays with control and tryptamine-treated mice included tests for movement or coordination, sense of balance, orientation, and loss of interest. The behavioral tests in which the tryptamine-treated mice were tested included (a) a test of stable sitting (following 3 months of treatment), and (b) a test of running on a narrow stick (following 3, 4 and 6 months of the treatment). […] As shown in the testing this behavior of mice is age-dependent. […] The data obtained regarding behavior of the control and tryptamine-treated mice are in good agreement with later signs of Alzheimer's disease compared with normal signs of aging (Source: Alzheimer's Disease: early warning signs and diagnostic resources. The Junior League of NYC, Inc, 1988).
The model mice were made to run on a white metallic 80 cm stick having a diameter of 1 cm stick and placed 30 cm over the surface of a platform. Data in TABLE I are: (a) lag time (time that the mice were sitting at one end of the stick before beginning to run); (b) run time; and (c) the % of the stick that the mice successfully completed.

In the case of `C#CCN(C)[C@H](C)Cc1ccccc1` [deprenyl], the “binding to tryptamine site (in words)” value (tryptamine binding site) is listed as “higher affinity for the (+)-stereo isomer compared with (−)-isomer”.

With `N[C@H](CO)Cc1c[nH]c2ccccc12` [tryptophanol] the “cell survival after cultivation with inhibitor” value [1] was “all cells have died”.

In the case of `NCCc1c[nH]c2ccc(O)cc12` [5-hydroxytryptamine], the “lower binding to tryptamine site than tryptamine” value (tryptamine binding site; relative to tryptamine) is listed as greater than 100.

In the case of `N[C@@H](Cc1c[nH]c2ccccc12)C(=O)O` [tryptophan], the “binding to tryptamine site (in words)” value (tryptamine binding site) is listed as “dramatically lower binding to trypatmine site than tryptamine”.

For `C=C1[C@@H](O)[C@@H]2O[C@]3(CC[C@H](/C=C/[C@@H](C)[C@@H]4CC(C)=C[C@@]5(O[C@H](C[C@@](C)(O)C(=O)O)CC[C@H]5O)O4)O3)CC[C@H]2O[C@@H]1[C@@H](O)C[C@H](C)[C@H]1O[C@@]2(CCCCO2)CC[C@H]1C` [okadaic acid], the “effect on tau and neurofibrillary tangles” value (neuronal cell lines) is listed as “results only in tau hyperphosphorylation, but not neurofibrillary tangles”.

In the case of `CC(N)Cc1ccccc1` (stereo not shown) [amphetamine], the “binding to tryptamine site (in words)” value (tryptamine binding site) is given as “higher affinity for the (+)-stereo isomer compared with (−)-isomer”.

For `NCCc1c[nH]c2ccccc12` [tryptamine], the “% of treated mice kept on the stick for more than 6 seconds” value (mice [2]; first experiment, control 66%) was 10%, the “% of treated mice kept on the stick for more than 13 seconds” value (mice [2]; second experiment, control 66%) was 20% and the “times less balanced than control” value (mice [2]; treated versus control mice) was 6.6 times. The toxic effect (mice [3]; four months of treatment) was “do not show any toxic effect”, the aggressive behavior (mice [3]; in contrast to control mice) was “do not show aggressive behavior” and the “neurofibrillary tangles in treated cells” value (SH SY5Y cells) was “numerous neurofibrillary tangles were found”. For the same compound, the “expression of cytoskeleton TrpRS forms” value (TrpRS) was “induces high expression of cytoskeleton TrpRS forms”, the “cell survival after cultivation with inhibitor” value [1] was “all cells have died” and the “relative toxicity for neuroblasts and epithelial cells” value ([1]; SH SY5Y) was “more toxic for neuroblasts than for epithelial cells”. The “neurodifferentiation of epithelial cells” value ([1]; continuous treatment with lower concentrations, then cultivation without inhibitors) was “induces neurodifferentiation of the epithelial cells”, the “binding to tryptamine site (in words)” value (tryptamine binding site) was “most potent inhibitor” and the “Alzheimer's-like manifestations in brain sections” value (mice [4]) was “Senile plaques, neurofibrillary tangles, and neuropil threads and fibrils were detected”. For the same compound, the Run time (mice [5]; 80 cm stick, 1 cm diameter) was 2 seconds and 0 seconds (7×) and 10 seconds and 17 seconds, the Lag time (mice [5]; 80 cm stick, 1 cm diameter, time sitting at one end before beginning to run) was 50 seconds and 47 seconds and 11 seconds and 17 seconds and 13 seconds and 40 seconds and 3 seconds (2×) and 9 seconds and 15 seconds and the “% of the way” value (mice [5]; % of the stick successfully completed) was 40% and 0% (7×) and 20% and 50%.

For `COc1ccc2[nH]cc(CCN)c2c1` [5-methoxytryptamine], the “binding to tryptamine site (in words)” value (tryptamine binding site) is given as “higher binding to tryptamine site compared with 5-hydroxytryptamine”.
